Ends that are not written are not given here.
What was measured:
yeast strain YDK11-5A = assay: growth assay, yEGFP fusion expression and chaperone overexpression; type: cell-based, S. cerevisiae; conditions: chaperones from GAL1-10 promoter, SGal-Leu-Trp plates, 30 °C
Source text: Supplementary Figure 3 The N-terminal residues of Rpl10 and Rpl3 are sufficient and required for the interaction with Sqt1 and Rrb1, respectively. (a) The negative growth effect associated with L10-N- and L3-N-yEGFP expression is suppressed by overexpression of Sqt1 and Rrb1, respectively. The wild-type strain YDK11-5A was co-transformed with plasmids expressing yEGFP, Rpl10(1-20)-yEGFP or Rpl3(1-23)-yEGFP from the cognate RPL10 or RPL3 promoter, respectively, and empty vector or plasmids expressing Sqt1 or Rrb1 from the inducible GAL1-10 promoter. Transformants were first selected and then restreaked on SGal-Leu-Trp plates. Cells were spotted in 10-fold serial dilution steps onto SC-Leu-Trp (Glucose, Glu) and SGal-Leu-Trp (Galactose, Gal) plates, which were incubated for 3 d or 4 d at 30 °C, respectively. (b) The N-terminal residues of Rpl10 and Rpl3 are sufficient to mediate interaction with their chaperones in vivo. Tandem-affinity purification of C-terminally TAP-tagged Sqt1 (Sqt1-TAP, lanes 1 and 2) and N-terminally TAP-tagged Rrb1 (NTAP-Rrb1, […]
(1 picture or pasted object on this page, not shown here)

NTAP-Rrb1 [1] = assay: in vivo co-purification (TAP) with NTAP-Rrb1; type: binding, S. cerevisiae; conditions: CUP1 promoter, 30 min with 500 µM copper sulfate
Procedure: (§1) Cells expressing Sqt1-TAP and NTAP-Rrb1 were grown at 30 °C in 4 l yeast extract peptone dextrose (YPD) medium to an optical density (OD600) of 2. Cell extracts were obtained by glass bead lysis with a Pulverisette (Fritsch). TAPs were performed in a buffer containing 50 mM Tris-HCl (pH 7.5), 100 mM NaCl, 1.5 mM MgCl2, 5% glycerol and 0.1% NP-40 as described. The EGTA eluates were precipitated by the addition of TCA to a final concentration of 10% and, after an acetone wash, dissolved in 80 μl of 3 × SDS sample buffer. […]
(§2) lanes 3 and 4) from cells where expression of the yEGFP control protein (lanes 1 and 3) or the Rpl10(1-20)-yEGFP (lane 2) and Rpl3(1-23)-yEGFP (lane 4) fusion proteins has been induced from the CUP1 promoter for 30 min with 500 µM copper sulfate. Final EGTA eluates were analyzed by SDS-PAGE and Coomassie staining (top) or by Western blotting using anti-CBP, anti-Flag, anti-GFP, anti-Rpl10, and anti-Rpl3 antibodies (bottom). Total cell extracts (input) were analyzed by Western blotting using anti-proteinA, anti-GFP, and anti-Adh1 (loading control) antibodies. […]
(§3) Final EGTA eluates were analyzed by SDS-PAGE and Coomassie staining (top) or by Western blotting using anti-CBP, anti-Flag, anti-HA, anti-Rpl10, and anti-Rpl3 antibodies (bottom). […] Total cell extracts (input) were analyzed by Western blotting using anti-proteinA, anti-HA, and anti-Adh1 (loading control) antibodies. […]

NTAP-Rrb1 [2] = assay: co-translational capturing of yEGFP fusion by qRT-PCR, NTAP-Rrb1 purification; type: binding, S. cerevisiae; conditions: vs yEGFP control mRNA; expressed 10 min from copper-inducible promoter, then cycloheximide
Procedure: Cells expressing Sqt1-TAP, NTAP-Rrb1, Syo1-FTpA and Yar1-TAP were grown at 30 °C in 400 ml YPD medium to an optical density (OD600) of 0.8, then cycloheximide was added to a final concentration of 0.2 mg ml^−1 and the flasks were kept, with intermittent vigorous shaking, on ice for 5 min. Cells were harvested by centrifugation for 5 min at 4 °C at 4,000 r.p.m., washed once with 20 ml of ice-cold lysis buffer (100 mM NaCl, 50 mM Tris-HCl (pH 7.5), 1.5 mM MgCl2, 0.1% NP-40 and 5% glycerol) containing 1 mM PMSF and 0.2 mg ml^−1 cycloheximide (lysis buffer-PC) and resuspended in 2 ml of lysis buffer-PC. Equal volumes of the resuspended cells were transferred into two 2.2 ml Eppendorf tubes, briefly centrifuged and resuspended in 600 μl of ice-cold lysis buffer-PC. To prevent RNA degradation, 4 μl of RiboLock (40 U μl^−1; Fermentas) was added. Then glass beads, corresponding to 1/3 of the lysis buffer volume, were added and the tubes were vigorously vortexed for 10 × 30 s with 30-s intervals on ice. Cell extracts were transferred to a new tube and, to maximize the yield, 400 μl of ice-cold lysis buffer-PC was used to rinse the glass beads. […]
For RNA isolation from the TEV eluate aliquot (∼450 μl), the TEV eluate was adjusted to 10 mM EDTA (pH 8.0) and 0.5% SDS. […] RNA concentrations (A260) were determined using a NanoDrop 1000 spectrophotometer (Thermo Scientific). […]

Sqt1-TAP [3] = assay: in vivo co-purification (TAP) with Sqt1-TAP; type: binding, S. cerevisiae; conditions: CUP1 promoter, 30 min with 500 µM copper sulfate
Procedure: as §1, §2, §3

Sqt1-TAP [4] = assay: co-translational capturing of yEGFP fusion by qRT-PCR, Sqt1-TAP purification; type: binding, S. cerevisiae; conditions: vs yEGFP control mRNA; expressed 10 min from copper-inducible promoter, then cycloheximide
Procedure: Figure 7 Chaperones are recruited to nascent ribosomal proteins. (a) The chaperone proteins were affinity purified (IgG-Sepharose pull-down) from extracts of cycloheximide-treated cells and the associated RNA was isolated from the TEV eluates. Each of the four chaperone purifications (NTAP-Rrb1, Syo1-FTpA, Sqt1-TAP, and Yar1-TAP) was assessed for their content of the four ribosomal protein (RP) mRNAs (RPL3, RPL5, RPL10 and RPS3) by real-time qRT–PCR. The data from one representative experiment are expressed as the relative enrichment of the specifically co-purified RP mRNA in each of the four chaperone purifications (see Methods section for details). For each cDNA, real-time qPCRs were performed in triplicates. A highly reproducible data set was obtained in an independent series of chaperone purifications. (b) The N-terminal residues of Rpl10 are sufficient to target Sqt1 to the nascent Rpl10(1–20)-yEGFP fusion protein. […] The Sqt1-TAP purifications were assessed for their content of the RPL3, RPL10 and yEGFP (GFP) mRNAs by real-time qRT–PCR. The data from one representative experiment are expressed as the fold enrichment relative to the RPL3 mRNA. […]

Rpl3 = assay: tandem-affinity purification of NTAP-Rrb1; type: binding, S. cerevisiae; conditions: TAP from yeast cell lysate, EGTA eluate, Coomassie
Procedure: (§4) Cells expressing Sqt1-TAP and NTAP-Rrb1 were grown at 30 °C in 4 l yeast extract peptone dextrose (YPD) medium to an optical density (OD600) of 2. Cell extracts were obtained by glass bead lysis with a Pulverisette (Fritsch). TAPs were performed in a buffer containing 50 mM Tris-HCl (pH 7.5), 100 mM NaCl, 1.5 mM MgCl2, 5% glycerol and 0.1% NP-40 as described. The EGTA eluates were precipitated by the addition of TCA to a final concentration of 10% and, after an acetone wash, dissolved in 80 μl of 3 × SDS sample buffer. Protein samples were separated on NuPAGE 4–12% Bis-Tris 12-well gels (Novex), run in 1 × MES SDS running buffer, and subsequently stained with Brilliant Blue G Colloidal Coomassie (Sigma).

Rpl10 = assay: tandem-affinity purification of Sqt1-TAP; type: binding, S. cerevisiae; conditions: TAP from yeast cell lysate, EGTA eluate, Coomassie
Procedure: as §4

L3-N (amino acids 1–23) yEGFP (MSHRKYEAPRHGHLGFLPRKRAA; also: fused to yEGFP, end not given here; UniProt P14126 1-23, looked up, fragment)
growth defect associated with expression, upon overexpression of Sqt1 or Rrb1, respectively (yeast strain YDK11-5A): efficiently suppressed
in vivo co-purification with the NTAP-Rrb1 bait (NTAP-Rrb1 [1]): specifically co-purified in vivo
enrichment of fusion mRNA in NTAP-Rrb1 purification (NTAP-Rrb1 [2]): clearly enriched compared with the yEGFP control mRNA

L10-N (amino acids 1–20) yEGFP (MARRPARCYRYQKNKPYPKS; also: fused to yEGFP; UniProt P41805 1-20, looked up, fragment)
growth defect associated with expression, upon overexpression of Sqt1 or Rrb1, respectively (yeast strain YDK11-5A): efficiently suppressed
in vivo co-purification with the Sqt1-TAP bait (Sqt1-TAP [3]): specifically co-purified in vivo
enrichment of fusion mRNA in Sqt1-TAP purification (Sqt1-TAP [4]): clearly enriched compared with the yEGFP control mRNA

B1: NTAP-Rrb1: N-terminally TAP-tagged Rrb1 (protein)
chain: MSKRSIEVNEEQDRVVSAKTESHSVPAIPASEEQDAPKNDLEEQLSDEFDSDGEIIEIDGDDEINDEDDLRKKQEEAETLVQKDQSEGNKEKIQELYLPHMSRPLGPDEVLEADPTVYEMLHNVNMPWPCLTLDVIPDTLGSERRNYPQSILLTTATQSSRKKENELMVLALSNLAKTLLKDDNEGEDDEEDDEDDVDPVIENENIPLRDTTNRLKVSPFAISNQEVLTATMSENGDVYIYNLAPQSKAFSTPGYQIPKSAKRPIHTVKNHGNVEGYGLDWSPLIKTGALLSGDCSGQIYFTQRHTSRWVTDKQPFTVSNNKSIEDIQWSRTESTVFATAGCDGYIRIWDTRSKKHKPAISVKASNTDVNVISWSDKIGYLLASGDDNGTWGVWDLRQFTPSNADAVQPVAQYDFHKGAITSIAFNPLDESIVAVGSEDNTVTLWDLSVEADDEEIKQQAAETKELQEIPPQLLFVHWQKEVKDVKWHKQIPGCLVSTGTDGLNVWKTISV
modifications: left off: NTAP (proteinA-TEV-CBP-Flag), N-terminal, kept
co-purification of Rpl3 (Rpl3): robust co-purification of Rpl3

B2: Sqt1-TAP: C-terminally TAP-tagged Sqt1 (protein)
chain: MEPQEEFITTEEVEQEIVPTVEVEQDVPVDIEGENDDDDEMMNDDEEALEVDMSNNSLTYFDKHTDSVFAIGHHPNLPLVCTGGGDNLAHLWTSHSQPPKFAGTLTGYGESVISCSFTSEGGFLVTADMSGKVLVHMGQKGGAQWKLASQMQEVEEIVWLKTHPTIARTFAFGATDGSVWCYQINEQDGSLEQLMSGFVHQQDCSMGEFINTDKGENTLELVTCSLDSTIVAWNCFTGQQLFKITQAEIKGLEAPWISLSLAPETLTKGNSGVVACGSNNGLLAVINCNNGGAILHLSTVIELKPEQDELDASIESISWSSKFSLMAIGLVCGEILLYDTSAWRVRHKFVLEDSVTKLMFDNDDLFASCINGKVYQFNARTGQEKFVCVGHNMGVLDFILLHPVANTGTEQKRKVITAGDEGVSLVFEVPN
modifications: left off: TAP, C-terminal, kept
co-enrichment of Rpl10 (Rpl10): good co-enrichment of Rpl10

Source: article PMC4491177, “Co-translational capturing of nascent ribosomal proteins by their dedicated chaperones” (Nature Communications, 2015)
